Results published in patent US20140088034A1, “NITRIC OXIDE/cGMP PATHWAY INHIBITION OF VLA-4 RELATED CELL ADHESION” (STC.UNM, priority 2011, published 2014).
Residues, ends and D or L forms follow the SMILES beside them.

How the values were obtained:
[1] = system: VLA-4/VCAM-1 dependent cell adhesion; assay: Real-time cell aggregation between U937 FPR (ΔST) and VCAM-1-transfected B78H1 cells; type: cell-based, human; details: U937 FPR ΔST + B78H1/VCAM-1; fMLFF 100 nM; DEA-NONOate 250 μM; LDV block 2 μM 6 min after mixing
Experimental: Real-time aggregation experiments were conducted as described under “Methods”, infra. U937/AST FPR stably transfected cells, which constitutively express VLA-4, were labeled with red fluorescent dye, and B78H1/VCAM-1 transfectants were stained with green fluorescent dye. […] Next, cells were mixed and real-time cell aggregation (red and green double positive events) was followed. To determine the level of VLA-4 dependent cell aggregation, 6 min after cell mixing, excess unlabelled VLA-4 specific ligand was added (arrow, LDV block, 2 μM).
Prior to the experiment, individual cell populations were stained with either of two fluorescent dyes (red and green). Next, the cell populations were mixed, and the appearance of double positive events, representing cellular aggregates, was followed in real-time by flow cytometry (see FIG. 1, 2, 3 in [55] for method details).
The cell suspension adhesion assay has been described previously. Briefly, U937/AST FPR stably transfected cells were labeled with red fluorescent PKH26GL dye, and B78H1/VCAM-1 transfectants were stained with green fluorescent PKH67GL dye (Sigma-Aldrich). Labeled cells were washed, resuspended in HEPES buffer supplemented with 0.1% HSA and stored on ice until used in assays. Control U937 cells were preincubated with the 1 μM LDV-containing small molecule for blocking adhesion. Prior to data acquisition, cells were warmed to 37° C. for 10 min separately and then mixed. During data acquisition, the samples were stirred with a 5×2-mm magnetic stir bar (Bel-Art Products, Pequannock, N.J.) at 300 rpm and kept at 37° C. For stimulation, cells were treated with appropriate GPCR ligands at saturating concentration (10 times or higher than Kd). In several experiments cells were treated sequentially with two different compounds. […] The percentage of aggregates was calculated as follows: % U937 cells in aggregates=number of aggregates/(number of aggregates+number of U937 singlets))×100. […]

VLA-4 [2] = assay: Real-time flow cytometric binding of LDV-FITC probe (VLA-4 affinity change) on GPCR-transfected U937 cells; type: cell-based, human; details: for reversibility of the decrease in LDV-FITC binding / effect on LDV-FITC binding, compound added after fMLFF activation: U937 non-desensitizing FPR mutant (ΔST), LDV-FITC 4 nM, fMLFF 100 nM; for effect on LDV-FITC binding, compound added after fMLFF activation: different concentrations; for effect on magnitude of LDV-FITC binding response, compound added prior to IL-8 activation: U937 CXCR2/IL-8RB; for effect on magnitude of LDV-FITC binding response, compound added prior to IL-8 activation / effect on magnitude of LDV-FITC binding response, compound added prior to SDF-1 activation: added at 0 time point, BAY 41-2272 100 μM; for effect on magnitude of LDV-FITC binding response, compound added prior to SDF-1 activation: U937 CXCR4
Experimental: Experiments were conducted as described under “Methods”, infra. A, LDV-FITC probe binding and dissociation on U937 cells stably transfected with the non-desensitizing mutant of FPR (ΔST) receptor plotted as mean channel fluorescence (MCF) versus time.
The experiment involved sequential addition of fluorescent LDV-FITC probe (4 nM, below saturation, added 2 min prior to addition of Gαi-coupled receptor ligand, fMLFF, 100 nM), and different concentrations of DEA-NONOate (nitric oxide donor) (arrows). Control cells were treated with vehicle. The MCF value corresponding to cell autofluorescence is indicated by the horizontal arrow. […] Curves are means of two independent determinations calculated on a point-by-point basis (n=2). B, LDV-FITC probe binding and dissociation on U937 cells stably transfected with wild type CXCR4 receptor plotted as mean channel fluorescence (MCF) versus time.
The experiment involved sequential addition of fluorescent LDV-FITC probe (4 nM), CXCL12/SDF-1 (12 nM), and DEA-NONOate (250 μM, nitric oxide donor) or vehicle (control) (arrows). Rapid and reversible binding of the probe reflects the VLA-4 affinity change. Curves are means of two independent determinations calculated on a point-by-point basis (n=2). SEM of mean, calculated on a point by point basis, indicated using error bars to show significance of the difference between treatment and control samples. C, LDV-FITC probe binding and dissociation on U937 cells stably transfected with wild type CXCR2/IL-8RB receptor plotted as mean channel fluorescence (MCF) versus time.
The experiment involved sequential addition of the fluorescent LDV-FITC probe (4 nM), CXCL8/IL-8 (20 nM), and DEA-NONOate (250 μM, nitric oxide donor) or vehicle (control) (arrows). This experiment is analogous to the one shown in panel B. One representative experiment of three experiments is shown. Curves are means of two independent determinations calculated on a point-by-point basis (n=2). D, LDV-FITC probe binding and dissociation on U937 cells stably transfected with wild type CXCR4 receptor plotted as mean channel fluorescence (MCF) versus time.
The experiment involved sequential addition of the DEA-NONOate (250 μM, nitric oxide donor) or vehicle (control) at the 0 time point, and the fluorescent LDV-FITC probe (4 nM), CXCL12/SDF-1 (12 nM) (arrows). Rapid and reversible binding of the probe reflects the VLA-4 affinity change. Excess unlabelled competitor LDV (1 μM) is added at the end of the experiment to determine the non-specific binding of the probe. Curves are means of two independent determinations calculated on a point-by-point basis (n=2). SEM, calculated on a point by point basis, is indicated using error bars to show the significance of the difference between treatment and control samples. E, LDV-FITC probe binding and dissociation on U937 cells stably transfected with wild type CXCR2/IL-8RB receptor plotted as mean channel fluorescence (MCF) versus time.
The experiment involved sequential addition of DEA-NONOate (250 μM, nitric oxide donor) or vehicle (control) at the 0 time point, and the fluorescent LDV-FITC probe (4 nM), CXCL8/IL-8 (20 nM) (arrows). Excess unlabelled competitor LDV (1 μM) added at the end of the experiment to determine the non-specific binding of the probe. This experiment is analogous to the one shown in panel D. One representative experiment of three experiments is shown. Curves are means of two independent determinations calculated on a point-by-point basis (n=2). […] Experiments shown in the different panels were performed using different instruments, and therefore MCF values are not identical. […]
LDV-FITC probe binding and dissociation on U937 cells stably transfected with the non-desensitizing mutant of FPR plotted as mean channel fluorescence (MCF) versus time. […]

VLA-4 [3] = target: VLA-4 (Homo sapiens, UniProt P05556+P13612); assay: Kinetic dissociation rate (koff) analysis of LDV-FITC probe on U937 cells with non-desensitizing FPR mutant; type: cell-based; details: U-937; U937 FPR ΔST; fMLFF 100 nM then BAY 41-2272 50 μM; LDV-FITC 25 nM, LDV block 2 μM; read-out: dissociation rate constant koff of LDV-FITC after fMLFF and BAY 41-2272
VLA-4 (Homo sapiens, UniProt P05556+P13612), sequence (P13612 34-1032): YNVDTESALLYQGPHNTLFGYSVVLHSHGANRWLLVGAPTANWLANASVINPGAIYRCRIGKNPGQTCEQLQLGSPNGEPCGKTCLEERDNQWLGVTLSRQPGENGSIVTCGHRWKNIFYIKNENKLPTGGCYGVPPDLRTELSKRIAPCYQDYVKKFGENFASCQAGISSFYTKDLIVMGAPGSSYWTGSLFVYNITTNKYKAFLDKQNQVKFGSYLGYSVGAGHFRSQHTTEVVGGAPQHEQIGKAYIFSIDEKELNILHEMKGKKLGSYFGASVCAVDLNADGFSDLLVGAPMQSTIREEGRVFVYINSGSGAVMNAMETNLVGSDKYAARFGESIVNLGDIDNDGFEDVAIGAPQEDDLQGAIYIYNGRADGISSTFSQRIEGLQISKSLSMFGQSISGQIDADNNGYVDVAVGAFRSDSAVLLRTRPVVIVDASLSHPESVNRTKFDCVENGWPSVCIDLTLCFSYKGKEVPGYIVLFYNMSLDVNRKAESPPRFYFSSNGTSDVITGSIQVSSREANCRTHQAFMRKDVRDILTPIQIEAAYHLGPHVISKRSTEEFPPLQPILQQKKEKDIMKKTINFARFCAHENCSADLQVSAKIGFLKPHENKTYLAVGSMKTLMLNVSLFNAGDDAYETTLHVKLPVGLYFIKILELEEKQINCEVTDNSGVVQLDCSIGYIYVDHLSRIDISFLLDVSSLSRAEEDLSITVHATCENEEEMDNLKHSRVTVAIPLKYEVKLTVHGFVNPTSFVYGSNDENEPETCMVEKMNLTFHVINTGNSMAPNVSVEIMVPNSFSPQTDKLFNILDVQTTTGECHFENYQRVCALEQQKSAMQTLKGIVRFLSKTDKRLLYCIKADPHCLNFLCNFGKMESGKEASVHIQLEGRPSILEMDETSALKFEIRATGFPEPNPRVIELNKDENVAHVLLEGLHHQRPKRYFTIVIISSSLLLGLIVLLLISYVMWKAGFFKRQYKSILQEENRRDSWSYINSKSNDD
VLA-4 (Homo sapiens, UniProt P05556+P13612), sequence (P05556 21-798): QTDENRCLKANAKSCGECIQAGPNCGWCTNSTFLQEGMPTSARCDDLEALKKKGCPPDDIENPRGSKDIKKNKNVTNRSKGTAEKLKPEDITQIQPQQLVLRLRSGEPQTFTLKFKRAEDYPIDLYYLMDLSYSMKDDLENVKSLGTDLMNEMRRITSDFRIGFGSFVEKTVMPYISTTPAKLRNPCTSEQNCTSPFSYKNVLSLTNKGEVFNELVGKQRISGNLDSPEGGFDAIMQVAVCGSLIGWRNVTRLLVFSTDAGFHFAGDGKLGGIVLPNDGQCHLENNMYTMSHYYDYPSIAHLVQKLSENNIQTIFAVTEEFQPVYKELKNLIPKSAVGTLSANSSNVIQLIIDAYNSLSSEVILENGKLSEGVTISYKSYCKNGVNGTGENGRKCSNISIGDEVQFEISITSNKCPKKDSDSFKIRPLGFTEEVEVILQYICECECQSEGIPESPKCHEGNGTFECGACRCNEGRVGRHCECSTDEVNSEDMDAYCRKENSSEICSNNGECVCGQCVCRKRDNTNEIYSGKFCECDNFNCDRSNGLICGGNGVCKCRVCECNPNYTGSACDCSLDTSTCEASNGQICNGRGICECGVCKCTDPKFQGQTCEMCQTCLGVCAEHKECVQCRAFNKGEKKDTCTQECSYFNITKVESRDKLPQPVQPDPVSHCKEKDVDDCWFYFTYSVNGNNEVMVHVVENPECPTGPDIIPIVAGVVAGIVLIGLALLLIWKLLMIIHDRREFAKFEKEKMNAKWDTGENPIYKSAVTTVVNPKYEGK
Experimental: The experiment involved sequential addition of BAY 41-2272 (100 μM, guanylyl cyclase activator) or vehicle (control) at the 0 time point, and the fluorescent LDV-FITC probe (4 nM), and CXCL8/IL-8 (20 nM) (arrows). Excess unlabelled competitor LDV (1 μM) added at the end of the experiment to determine the non-specific binding of the probe. This experiment is analogous to the one shown in panel B. One representative experiment of two experiments is shown. Curves are means of two independent determinations calculated on a point-by-point basis (n=2). […] D, Kinetic analysis of binding and dissociation of LDV-FITC probe on U937 cells stably transfected with the non-desensitizing mutant of FPR. Cells were sequentially treated with the LDV-FITC probe (25 nM, near saturation), the Gαi-coupled receptor ligand (fMLFF, 100 nM), BAY 41-2272 (guanylyl cyclase activator, 50 μM) (arrows). At time points indicated by arrows, cells were treated with excess unlabeled LDV containing small molecule (2 μM), and the dissociation of the fluorescent molecule was followed. Dissociation rate constants (koff) were obtained by fitting dissociation curves to a single exponential decay equation (as described in the text). Experiments shown in the different panels were performed using different instruments, and therefore MCF values are not identical. E, Dissociation rate values, obtained in experiments analogous to panel B, summarized as a bar graph showing mean and SEM (n=4). Colors of the dissociation curves in panel D and bars on panel E are matching. The difference between koffs for “resting” and “fMLFF activated”, and between “fMLFF activated” and “fMLFF activated and treated with BAY 41-2272” is statistically significant (P=0.0006<0.05) as calculated by one-way analysis of variance (ANOVA) using GraphPad Prism software. […]
Next, the regions of the ligand-binding curves corresponding to the dissociation of the LDV-FITC probe were fitted to a single exponential decay equation. […] The affinity state induced by guanylyl cyclase activator was quantitatively similar to the resting state before activation. […]

[4] = DEA-NONOate 250 μM, CXCL8/IL-8 20 nM
[5] = DEA-NONOate 250 μM, CXCL12/SDF-1 12 nM

SMILES | effect on VLA-4/VCAM-1 dependent cell aggregation (% U937 cells in aggregates) [1] | reversibility of the decrease in LDV-FITC binding (VLA-4 [2]) | effect on LDV-FITC binding, compound added after fMLFF activation (VLA-4 [2]) | effect on magnitude of LDV-FITC binding response, compound added prior to IL-8 activation (VLA-4 [2]; [4]) | effect on magnitude of LDV-FITC binding response, compound added prior to SDF-1 activation (VLA-4 [2]; [5]) | koff (VLA-4 [3]) | effect on LDV-FITC binding, compound added after CXCL8/IL-8 activation (VLA-4 [2]; U937 wild type CXCR2/IL-8RB, CXCL8/IL-8 20 nM, DEA-NONOate 250 μM) | effect on LDV-FITC binding, compound added after CXCL12/SDF-1 activation (VLA-4 [2]; U937 wild type CXCR4, CXCL12/SDF-1 12 nM, DEA-NONOate 250 μM)
CSCC[C@H](NC=O)C(=O)N[C@@H](CC(C)C)C(=O)N[C@@H](Cc1ccccc1)C(=O)N[C@@H](Cc1ccccc1)C(=O)O [fMLFF, N-formyl-L-methionyl-L-leucyl-L-phenylalanyl-L-phenylalanine] (HELM PEPTIDE1{[O=C[*:2]].M.L.F.F}$$$$V2.0) | rapid increase in cell aggregation | – | – | – | – | – | – | –
CCCC(=O)Nc1nc2c(ncn2C2OC3COP(=O)([O-])OC3C2OC(=O)CCC)c(=O)[nH]1.[Na+] (stereo not shown) [dbcGMP, N^2,2′-O-Dibutyrylguanosine 3′,5′-cyclic monophosphate] | – | reversible | dose-dependent decrease in the binding of the probe | – | – | – | – | –
Cc1ccccc1NC(=O)Nc1ccc(CC(=O)N[C@@H](CC(C)C)C(=O)N[C@@H](CC(=O)O)C(=O)N[C@H](C(=O)N2CCC[C@H]2C(=O)N[C@@H](C)C(=O)N[C@@H](C)C(=O)N[C@@H](CCCCN)C(=O)O)C(C)C)cc1 [LDV, 4-((N′-2-methylphenyl)ureido)-phenylacetyl-L-leucyl-L-aspartyl-L-valyl-L-prolyl-L-alanyl-L-alanyl-L-lysine] | rapid cellular disaggregation | – | – | – | – | – | – | –
Nc1nc(-c2nn(Cc3ccccc3F)c3ncccc23)ncc1C1CC1 [BAY 41-2272, 3-(4-Amino-5-cyclopropylpyrimidin-2-yl)-1-(2-fluorobenzyl)-1H-pyrazolo[3,4-b]pyridine] | – | partially reversible | significant decrease in LDV-FITC binding | decrease in the magnitude of the response | decrease in the magnitude of the response | ~0.036 s⁻¹ | – | –
CCN(CC)/[N+]([O-])=N/O [DEA-NONOate] | abolished fMLFF-dependent cellular aggregation | not reversible | rapid and dose-dependent decrease in the binding of the VLA-4 specific ligand | significant decrease in the magnitude of the response | significant decrease in the magnitude of the response | – | faster and more pronounced signal decrease | faster and more pronounced signal decrease
